Where “and” joins values, the source holds several entries; their conditions need not be identical. Identical values can stand only once. Entries after “also recorded” stand apart in the source; their conditions may differ.
Assays:
[1] = tested on: kidney tissues of treated or untreated rats; test: Real-time qRT-PCR of signature amplicons, validation stage, labeled and un-labeled samples (Table 23); conditions: for H31883_DB71_seg13 normalized qRT-PCR result / MUSCYCG1R_DB81_seg19-20 normalized qRT-PCR result / W41270_DB81_seg11 normalized qRT-PCR result: un-labeled sample, one line per animal; for AI045075_DB71_seg6 normalized qRT-PCR expression (Interferon stimulated exonuclease 20 (ISG20) transcript) / H31883_DB71_seg13 normalized qRT-PCR expression (Cyclin-G1 (CCNG1) transcript) / MUSCYCG1R_DB81_seg19-20 normalized qRT-PCR expression / W41270_DB81_seg11 normalized qRT-PCR expression (tumor necrosis factor receptor superfamily, member 12a transcript) / W64472_DB81_seg2 normalized qRT-PCR expression (Interferon stimulated exonuclease 20 (ISG20) transcript) / W83813_DB81_seg27 normalized qRT-PCR expression: un-labeled samples, kidney of individual male/female rats
Outline: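 Each of four signature genes measured as wild-type and alternative-splice amplicons by qRT-PCR in treated or untreated rat kidney. Normalization was two-step: housekeeping-gene factor, then inter-plate correction from shared samples on a shuffled control plate; final values rescaled for display.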

rat kidney samples = test: Random-Forest classifiers applied to un-labeled samples of T1, T2, T3 and control (Table 30); conditions: for Average 'Toxic' (%): average of the two classifiers
Method: To validate the optimal signature for classification of renal toxicity of a compound after five days of application a test of the signatory polynucleotide/gene expression in rat kidney samples consisting of tissues from rats exposed to three drug compounds and a single control group was carried out (Teva Pharmaceutical Industries, IL).
The two optimal classifiers (signatures described in Tables 26 and 27) were applied to the qRT-PCR reads of the un-labeled samples and their calls was used to assign a level of toxicity to each group and, eventually, each compound.
The classifiers described in Tables 26 and 27, were used for testing the un-labeled samples. Both classifiers were applied to the measurements of each sample, used the 30% bound from above, and the number of samples pass that bound in each group were summarized.

kidney = test: Renal histopathology of rats treated with T1, T2, T3; format: in vivo, rat
Method: Each group consisted of 6 male and 6 female rats. The additional groups consisted of 6 males and 6 female rats treated with control compound for a single day and for five days, as described in Table 24.
T2 “no observed effect level” (NOEL, i.e., the maximal dose at which no toxic effect is visible) is 15 mg/kg.
At autopsy, both kidneys of each animal were removed and each kidney was cross sectioned. Half of each kidney was sent to RNA extraction and analysis.

[2] = Ds1, Day1, oral gavage, female rat kidney
[3] = Ds1, Day1, oral gavage, male rat kidney
[4] = Ds1, Day5, oral gavage, female rat kidney
[5] = Ds1, Day5, oral gavage, male rat kidney
[6] = Ds2, Day1, oral gavage, female rat kidney
[7] = Ds2, Day1, oral gavage, male rat kidney
[8] = Ds2, Day5, oral gavage, female rat kidney
[9] = Ds2, Day5, oral gavage, male rat kidney

## CN(C)c1cccc2c1CCC2Nc1cc(=O)[nH]c(=O)[nH]1.Cl (stereo not shown) [T2]
[1]; [2]
  H31883_DB71_seg13 normalized qRT-PCR result: 0.183 and 0.213 and 0.29 and 0.387
  MUSCYCG1R_DB81_seg19-20 normalized qRT-PCR result: 0.54 and 0.419 and 0.836 and 0.49
  W41270_DB81_seg11 normalized qRT-PCR result: 0.492 and 0.468 and 1.072 and 0.969
[1]; [3]
  H31883_DB71_seg13 normalized qRT-PCR result: 0.955 and 0.798 and 0.931 and 1.182
  MUSCYCG1R_DB81_seg19-20 normalized qRT-PCR result: 0.98 and 0.709 and 1.059 and 1.253
  W41270_DB81_seg11 normalized qRT-PCR result: 0.801 and 0.791 and 1.076 and 1.477
[1]; [4]
  H31883_DB71_seg13 normalized qRT-PCR result: 0.865 and 0.922 and 0.961 and 0.824 and 1.303
  MUSCYCG1R_DB81_seg19-20 normalized qRT-PCR result: 0.771 and 1.02 and 1.923 and 1.232 and 0.94
  W41270_DB81_seg11 normalized qRT-PCR result: 0.464 and 0.532 and 0.616 and 0.572 and 0.773
[1]; [5]
  H31883_DB71_seg13 normalized qRT-PCR result: 0.11 and 0.209 and 0.27 and 0.299
  MUSCYCG1R_DB81_seg19-20 normalized qRT-PCR result: 1.566 and 1.449 and 1.516 and 1.237
  W41270_DB81_seg11 normalized qRT-PCR result: 1.445 and 1.42 and 1.258 and 1.447
[1]; [6]
  H31883_DB71_seg13 normalized qRT-PCR result: 0.289 and 0.365 and 0.32 and 0.444 and 0.254
  MUSCYCG1R_DB81_seg19-20 normalized qRT-PCR result: 2.008 and 0.857 and 3.044 and 2.152 and 0.71
  W41270_DB81_seg11 normalized qRT-PCR result: 1.104 and 0.741 and 1.73 and 1.211 and 0.666
[1]; [7]
  H31883_DB71_seg13 normalized qRT-PCR result: 0.773 and 0.595 and 0.741 and 0.777 and 0.725 and 0.614
  MUSCYCG1R_DB81_seg19-20 normalized qRT-PCR result: 1.006 and 0.729 and 0.541 and 1.015 and 0.588 and 0.471
  W41270_DB81_seg11 normalized qRT-PCR result: 1.462 and 0.692 and 0.656 and 1.23 and 0.866 and 0.837
[1]; [8]
  H31883_DB71_seg13 normalized qRT-PCR result: 0.269 and 0.354
  MUSCYCG1R_DB81_seg19-20 normalized qRT-PCR result: 0.799 and 3.003
  W41270_DB81_seg11 normalized qRT-PCR result: 0.554 and 1.029
[1]; [9]
  H31883_DB71_seg13 normalized qRT-PCR result: 0.615 and 1.022 and 0.962 and 0.626
  MUSCYCG1R_DB81_seg19-20 normalized qRT-PCR result: 1.338 and 0.831 and 0.83 and 0.878
  W41270_DB81_seg11 normalized qRT-PCR result: 0.899 and 1.446 and 0.623 and 1.049
[1]; dose Ds1, Day1, oral gavage
  AI045075_DB71_seg6 normalized qRT-PCR expression (Interferon stimulated exonuclease 20 (ISG20) transcript): 1.308 and 0.744 and 1.159
  H31883_DB71_seg13 normalized qRT-PCR expression (Cyclin-G1 (CCNG1) transcript): 0.88 and 0.67 and 0.613 and 0.695 and 0.464 and 0.951 and 0.536 and 0.646 and 0.629 and 0.7 (2×)
  MUSCYCG1R_DB81_seg19-20 normalized qRT-PCR expression: 0.938 and 0.555 and 0.115 and 0.859 and 0.124 and 0.888 and 0.267 and 0.157 and 0.47 and 0.126 and 0.51
  W41270_DB81_seg11 normalized qRT-PCR expression (tumor necrosis factor receptor superfamily, member 12a transcript): 0.481 and 0.662 and 0.473 and 0.76 and 0.474 and 0.876 and 0.959 and 0.518 and 0.823 and 3.38 and 0.623
  W64472_DB81_seg2 normalized qRT-PCR expression (Interferon stimulated exonuclease 20 (ISG20) transcript): 1.863 and 0.632 and 1.305
  W83813_DB81_seg27 normalized qRT-PCR expression: 0.305 and 0.666 and 0.84
[1]; dose Ds1, Day5, oral gavage
  AI045075_DB71_seg6 normalized qRT-PCR expression (Interferon stimulated exonuclease 20 (ISG20) transcript): 1.016 and 1.11
  H31883_DB71_seg13 normalized qRT-PCR expression (Cyclin-G1 (CCNG1) transcript): 1.884 and 1.539 and 1.163 and 1.329 and 1.66 and 1.079 and 0.936 and 0.978 and 1.439 and 1.149 and 2.147
  MUSCYCG1R_DB81_seg19-20 normalized qRT-PCR expression: 0.107 and 0.113 and 1.399 and 1.006 and 0.148 and 0.127 and 0.736 and 1.386 and 1.293 and 0.172 and 0.179
  W41270_DB81_seg11 normalized qRT-PCR expression (tumor necrosis factor receptor superfamily, member 12a transcript): 0.233 and 0.493 and 0.626 and 1.149 and 0.321 and 0.477 and 0.83 and 1.524 and 1.111 and 0.397 and 0.337
  W64472_DB81_seg2 normalized qRT-PCR expression (Interferon stimulated exonuclease 20 (ISG20) transcript): 0.929 and 0.996
  W83813_DB81_seg27 normalized qRT-PCR expression: 0.248 and 0.203
[1]; dose Ds2, Day1, oral gavage
  AI045075_DB71_seg6 normalized qRT-PCR expression (Interferon stimulated exonuclease 20 (ISG20) transcript): 1.43
  H31883_DB71_seg13 normalized qRT-PCR expression (Cyclin-G1 (CCNG1) transcript): 0.832 and 0.773 and 0.635 and 0.722 and 0.618 and 0.999 and 0.602 and 0.522 and 1.006 and 1.079 and 0.84 and 0.762
  MUSCYCG1R_DB81_seg19-20 normalized qRT-PCR expression: 0.211 and 0.531 and 0.505 and 0.585 and 0.475 and 0.661 and 0.197 and 0.458 and 0.167 and 0.192 and 0.14 and 0.111
  W41270_DB81_seg11 normalized qRT-PCR expression (tumor necrosis factor receptor superfamily, member 12a transcript): 1.747 and 1.016 and 0.424 and 0.589 and 0.545 and 0.528 and 0.384 and 0.577 and 1.729 and 1.125 and 0.594 and 0.92
  W64472_DB81_seg2 normalized qRT-PCR expression (Interferon stimulated exonuclease 20 (ISG20) transcript): 0.804
  W83813_DB81_seg27 normalized qRT-PCR expression: 0.201
[1]; dose Ds2, Day5, oral gavage
  AI045075_DB71_seg6 normalized qRT-PCR expression (Interferon stimulated exonuclease 20 (ISG20) transcript): 0.609 and 1.842 and 0.637
  H31883_DB71_seg13 normalized qRT-PCR expression (Cyclin-G1 (CCNG1) transcript): 1.386 and 0.676 and 1.01 and 1.128 and 1.161 and 1.146 and 1.057 and 0.942 and 1.256
  MUSCYCG1R_DB81_seg19-20 normalized qRT-PCR expression: 0.345 and 0.169 and 0.513 and 0.148 and 0.185 and 0.997 and 0.746 and 0.686 and 0.655
  W41270_DB81_seg11 normalized qRT-PCR expression (tumor necrosis factor receptor superfamily, member 12a transcript): 1.186 and 0.308 and 0.497 and 0.711 and 1.237 and 0.857 and 0.788 and 0.457 and 0.668
  W64472_DB81_seg2 normalized qRT-PCR expression (Interferon stimulated exonuclease 20 (ISG20) transcript): 0.731 and 1.178 and 0.485
  W83813_DB81_seg27 normalized qRT-PCR expression: 0.601 and 0.555 and 0.354
Rat kidney samples; Ds1 Day1 Female
  Average 'Toxic' (%): 20%
Rat kidney samples; Ds1 Day1 Male
  Average 'Toxic' (%): 25%
Rat kidney samples; Ds1 Day5 Female
  Average 'Toxic' (%): 30%
Rat kidney samples; Ds1 Day5 Male
  Average 'Toxic' (%): 83%
Rat kidney samples; Ds2 Day1 Female
  Average 'Toxic' (%): 58.5%
Rat kidney samples; Ds2 Day1 Male
  Average 'Toxic' (%): 0%
Rat kidney samples; Ds2 Day5 Female
  Average 'Toxic' (%): 50%
Rat kidney samples; Ds2 Day5 Male
  Average 'Toxic' (%): 30%
Rat kidney samples; signatures of Tables 26 and 27, 30% bound
  Toxicity conclusion from classifier calls: nephrotoxic agents
kidney; 50 mg/kg, after 7 days
  Kidney histopathology findings: direct cortical tubular toxicity; also recorded: multifocal, consisting of tubular basophilia, indicating regeneration following necrosis; also recorded: basophilic tubules in the cortex, indicating post-necrotic regeneration
kidney; rats
  Time after which visible pathological damage was seen: 7 days
  no observed effect level (NOEL): 15 mg/kg
kidney; rats, dose and duration as in the value
  Renal damage: renal damage after 7 days of treatment at the 50 mg/kg dose

— patent US20160177395A1, “BIOMARKERS FOR THE PREDICTION OF RENAL INJURY” (priority 2007, published 2016)
